Entries after “also recorded” stand apart in the source; their conditions may differ. Square brackets hold non-standard residues; d marks the D form. Peptide text beside a SMILES is read from it.
What was measured:
[1] = tested on: anesthetized rats; test: In vivo hemodynamics in anesthetized rats pretreated with icatibant or peptidase inhibitors; set-up: species or system male Sprague-Dawley rats; details: 1.6 μg/kg i.v.; for hypotensive response after Plummer’s inhibitor, in words: Dunnett’s P < 0.05 (r-BK-RR); for heart rate response after enalaprilat + Plummer’s inhibitor, in words / duration of hypotensive episode after enalaprilat + Plummer’s inhibitor, in words / hypotensive response after enalaprilat + Plummer’s inhibitor, in words: enalaprilat 0.1 mg/kg + Plummer’s inhibitor 0.75 mg/kg i.v. 15 min before; for duration of hypotensive episode after enalaprilat + Plummer’s inhibitor, in words / hypotensive response after enalaprilat + Plummer’s inhibitor, in words: Dunnett’s P < 0.01 (r-BK); for hypotensive response after enalaprilat + Plummer’s inhibitor, in words: P < 0.05 (r-BK-RR); for duration of hypotensive episode after enalaprilat, in words: Dunnett’s P < 0.001 (r-BK-RR); for duration of residual hypotensive episode after icatibant, in words / heart rate response after icatibant, in words / hypotensive response after icatibant, in words: icatibant 75 μg/kg i.v. 15 min before; for hypotensive response after icatibant, in words: Dunnett’s P < 0.001 (r-BK), P < 0.01 (r-BK-RR)
Protocol: All surgical and experimental procedures were reviewed and approved by the Animal Care and Handling Committee of Laval University, in accordance with the Canadian Council on Animal Care. Experiments were performed on male Sprague-Dawley rats (300–375 g) purchased from Charles River Laboratories (St-Constant, QC, Canada). The rats were housed in a light-controlled (12:12-h light-dark cycle (lights on at 0600)) and temperature-regulated room (22 ± 1°C). Animals had free access to normal chow diet and tap water. They were allowed to acclimate to their environmental conditions for 1 week prior to being studied. At the end of the acclimation period, the rats were anesthetised with sodium pentobarbital (50 mg kg^-1, i.p., supplemented as required) and had one catheter implanted into the right jugular vein [for intravenous (i.v.) injection] and one into the left femoral artery [for direct and continuous measurement of blood pressure and heart rate as previously described ([Jean et al., 2016])]. Experiments started at least 20 min following the end of surgery in anesthetised rats.
The mechanism subserving the cardiovascular responses to random i.v. injections of r-BK and r-BK-RR at the dose of 1.6 μg/kg, was evaluated in rats pretreated with specific antagonists. In these experiments, the rats were separated in four groups depending on the antagonist tested, and the cardiovascular responses to the peptides agonists were compared with those elicited in the untreated control group of rats. In the first group of treated rats, the long acting and selective B2R antagonist, icatibant (Hoe 140) (D-Arg-[Hyp^3, Thi^5, D-Tic^7, Oic^8]) bradykinin ([Hock et al., 1991]; [Wirth et al., 1991]; [Rhaleb et al., 1992]; [Marceau et al., 1994]) was intravenously administered as bolus (75 μg/kg, 0.1 ml) following a 10 min period of baseline measurements of heart rate and blood pressure. Fifteen minutes later, recording changes in blood pressure and heart rate elicited by i.v. injection of peptide vehicle (saline-BSA 0.1%) followed by random injections of r-BK and r-BK-RR, were made as described above. The next peptide was administered once all recorded cardiovascular parameters had returned to baseline after the previous injection. Further experiments were made in a second group of rats pretreated with the ACE inhibitor, enalaprilat. In these experiments, enalaprilat was intravenously administered as bolus ([…], 0.1 ml) 15 min before the i.v. injections of peptide vehicle and both customized peptides, as above. Further experiments were also carried out in rats pretreated with the Plummer’s inhibitor (mercaptomethyl-3-guanidinoethylthiopropanoic acid) a high affinity inhibitor of arginine carboxypeptidases that is an arginine analog ([Plummer and Ryan, 1981]). The inhibitor was intravenously administered as bolus (0.75 mg/kg, 0.1 ml) followed 15 min later by the i.v. injections of saline-BSA 0.1%, and then r-BK and -r-BK-RR (1.6 μg/kg) in random order. A fourth group of rats was pretreated with a combined i.v. injection of enalaprilat (0.1 mg/kg) and the Plummer’s inhibitor (0.75 mg/kg) 15 min before the randomized i.v. injections of both customized peptides, as above. The doses of different inhibitors were based on preliminary experiments and from previous studies performed by us and others ([Ishida et al., 1989]; [Wirth et al., 1991]; [Muto et al., 2003]; [Jean et al., 2016]). At the end of the experiments the rats were euthanized with an overdose of sodium pentobarbital (240 mg/kg, i.v.).
Results are presented as means ± SEM. Radioligand binding data were fitted by non-linear regression to a one-site competition equation using a least-square method (Prism 5.0, GraphPad Software Inc., San Diego, CA, United States) and IC50 values calculated from this procedure. […]

[2] = tested on: GFP-tagged rabbit B2R (B2R-GFP); test: B2R-GFP endocytosis and recycling, epifluorescence microscopy, HEK 293 cells; format: cell-based; details: 30 min vs 3 h of stimulation
[3] = tested on: human ACE-mCherry fusion protein; test: Competition of a fluorogenic ACE substrate by synthetic kinins (recombinant ACE-mCherry); format: biochemical; details: 15 min, 37°C
Protocol: The source of enzyme was whole HEK 293a cells grown in 24-well plates and transfected as described with a vector coding for the human ACE-mCherry fusion protein, an active enzyme ([Charest-Morin and Marceau, 2016]). The culture medium was removed from cell wells, which were rinsed twice with PBS. The fluorogenic substrate (final concentration 20 μM), and, optionally, a competitor (BK, r-BK, or r-BK-RR in variable concentrations, or the ACE inhibitor enalaprilat 1 μM) were added in 250 μl PBS in each well; the plates were then incubated for 15 min at 37°C. At this point, the well supernatants were transferred in Eppendorf tubes, centrifuged 30 s at 12500 rpm to remove debris and 100 μl of this fluid transferred in wells of 96-well plate (black background) to read the fluorescence (excitation 320 nm, emission 420 nm) using a TECAN Infinite® 200 PRO microplate reader. Results were expressed as the percent of the fluorescence in wells containing ACE-mCherry and the substrate without competitors. Controls included mock-transfected cells and enalaprilat-treated cells.

[4] = Plummer’s inhibitor 0.75 mg/kg i.v. 15 min before
[5] = enalaprilat 0.1 mg/kg i.v. 15 min before
[6] = enalaprilat 0.1 mg/kg i.v. 15 min before, Dunnett’s P < 0.05 (r-BK)

N=C(N)NCCC[C@@H](N)C(=O)N[C@@H](CCCNC(=N)N)C(=O)N1CCC[C@H]1C(=O)N1CCC[C@H]1C(=O)NCC(=O)N[C@@H](Cc1ccccc1)C(=O)N[C@@H](CO)C(=O)N1CCC[C@H]1C(=O)N[C@@H](Cc1ccccc1)C(=O)N[C@@H](CCCNC(=N)N)C(=O)O [r-BK, D-Arg^0-BK] (H-[dR]RPPGFSPFR-OH)
heart rate (tachycardic) response after Plummer’s inhibitor, in words [1, 4]: no effect
hypotensive response after Plummer’s inhibitor, in words [1, 4]: no effect
heart rate response after enalaprilat + Plummer’s inhibitor, in words [1]: not different from that seen in untreated rats
duration of hypotensive episode after enalaprilat + Plummer’s inhibitor, in words [1]: significantly potentiated
hypotensive response after enalaprilat + Plummer’s inhibitor, in words [1]: significantly potentiated
duration of hypotensive episode after enalaprilat, in words [1, 5]: not different from that seen in untreated rats
hypotensive response after enalaprilat, in words [1, 6]: significantly potentiated
tachycardic response after enalaprilat, in words [1, 6]: significantly potentiated (P < 0.05, Dunnett’s test) as was the tachycardic response
duration of residual hypotensive episode after icatibant, in words [1]: comparable to those seen in the untreated group
heart rate response after icatibant, in words [1]: comparable to those seen in the untreated group
hypotensive response after icatibant, in words [1]: significantly inhibited
persistence of B2R-GFP endocytosis, in words [2]: reversible as a function of incubation time, as that of BK; also recorded: not more persistent
inhibition of ACE substrate hydrolysis, in words ([3]; competitor 20 μM (equal to substrate concentration), fluorescence): nearly complete inhibition

N=C(N)NCCC[C@@H](N)C(=O)N[C@@H](CCCNC(=N)N)C(=O)N1CCC[C@H]1C(=O)N1CCC[C@H]1C(=O)NCC(=O)N[C@@H](Cc1ccccc1)C(=O)N[C@@H](CO)C(=O)N1CCC[C@H]1C(=O)N[C@@H](Cc1ccccc1)C(=O)N[C@@H](CCCNC(=N)N)C(=O)N[C@@H](CCCNC(=N)N)C(=O)N[C@@H](CCCNC(=N)N)C(=O)O [r-BK-RR, D-Arg^0-BK-Arg-Arg] (H-[dR]RPPGFSPFRRR-OH)
duration of hypotensive episode after Plummer’s inhibitor, in words [1, 4]: not different from those seen in untreated rats
heart rate (tachycardic) response after Plummer’s inhibitor, in words [1, 4]: not different from those seen in untreated rats
hypotensive response after Plummer’s inhibitor, in words [1, 4]: significantly reduce the hypotensive response
heart rate response after enalaprilat + Plummer’s inhibitor, in words [1]: not different from those seen in untreated rats
duration of hypotensive episode after enalaprilat + Plummer’s inhibitor, in words [1]: not different from those seen in untreated rats
hypotensive response after enalaprilat + Plummer’s inhibitor, in words [1]: significantly reduce the hypotensive response
duration of hypotensive episode after enalaprilat, in words [1, 5]: significantly increase the duration of the hypotensive episode
hypotensive response after enalaprilat, in words [1, 6]: no significant effect on the hypotensive response
duration of residual hypotensive episode after icatibant, in words [1]: not different from those of controls
heart rate response after icatibant, in words [1]: not different from those of controls
hypotensive response after icatibant, in words [1]: strongly reduce the hypotensive response
competition for recombinant ACE, relative affinity, in words ([3]; Abz-Phe-Arg-Lys(Dnp)-Pro-OH 20 μM, HEK 293a cells with ACE-mCherry, PBS, fluorescence ex 320 / em 420 nm): only slightly less potent than the two other peptides

— article PMC5880945, “D-Arg^0-Bradykinin-Arg-Arg, a Latent Vasoactive Bradykinin B2 Receptor Agonist Metabolically Activated by Carboxypeptidases” (Frontiers in Pharmacology, 2018)
